Laboratory results taken from patent US11634425B2, “Pharmaceutical compounds” (priority 2019, dated 2023).
Where two headings read alike, the source gives them in different places.

Assay: in vivo
Format: in vivo
Details: male Beagle dog; for Vd / clearance / Cmax / half-life / AUC(0-t): in vivo; for Cmax / C 8 h: IV 0.5 mg/kg / PO 3 or 4 mg/kg study; for AUC(0-t): read-out: PO AUClast
Method: The pharmacokinetics of compounds were studied in vivo in dogs at doses of 0.5 mg/kg (IV) and 4 mg/kg (PO).
Male Beagle dogs were treated with experimental compounds via intravenous administration (n=2; 0.5 mg/kg) or oral administration (n=2; 3 or 4 mg/kg). Compounds were formulated as a solution in 20% dimethylacetamide/80% (2-hydroxypropyl)-β-cyclodextrin (20% w/v) (IV administration) or a solution in 10% dimethylacetamide/90% (2-hydroxypropyl)-β-cyclodextrin (20% w/v) (PO administration). […] Serial blood samples were collected from the jugular vein at 0.03, 0.08, 0.25, 0.5, 1, 2, 4, 6, 8 and 24 h post IV dosing of compound, and at 0.08, 0.25, 0.5, 1, 2, 4, 6, 8 and 24 h post oral dosing of compound, and plasma was prepared by centrifugation and stored immediately at −80° C. Samples were subsequently thawed, prepared for analysis by protein precipitation with acetonitrile, and analysed by tandem LCMS using electrospray ionisation using a matrix-matched calibration curve. PK parameters were calculated from the resulting data.

[1] = IV 0.5 mg/kg, read-out: IV t1/2 (converted)
[2] = PO 3 or 4 mg/kg, read-out: PO t1/2 (converted)

SMILES: O=C(N[C@H]1N=C(c2ccccc2)c2ccccc2NC1=O)c1c(-c2ccccc2F)nn2cccnc12 [Example 2, 2-(2-Fluorophenyl)-N-[(3S)-2-oxo-5-phenyl-1,3-dihydro-1,4-benzodiazepin-3-yl]pyrazolo[1,5-a]pyrimidine-3-carboxamide]
- Vd (IV 0.5 mg/kg): 0.92 L/kg
- clearance (IV 0.5 mg/kg): 0.078 L/h/kg
- Cmax: 1.92 µg/mL
- half-life [1]: 9.8 h
- AUC(0-t) (PO 3 or 4 mg/kg): 22.3 µg·h/mL
- half-life [2]: 11.1 h
- C 8 h: 0.968 µg/mL
- F (IV 0.5 mg/kg, PO 3 or 4 mg/kg): 55%

SMILES: Cc1ccc(-c2nn3cccnc3c2C(=O)N[C@H]2N=C(c3ccccc3)c3cccc(F)c3NC2=O)cn1 [Example 50, N-[(3S)-9-fluoro-2-oxo-5-phenyl-1,3-dihydro-1,4-benzodiazepin-3-yl]-2-(6-methylpyridin-3-yl)pyrazolo[1,5-a]pyrimidine-3-carboxamide]
- Vd (IV 0.5 mg/kg): 1.3 L/kg
- clearance (IV 0.5 mg/kg): 0.102 L/h/kg
- Cmax: 1.2 µg/mL
- half-life [1]: 12.2 h
- AUC(0-t) (PO 3 or 4 mg/kg): 13.3 µg·h/mL
- half-life [2]: 16.1 h
- C 8 h: 0.549 µg/mL
- F (IV 0.5 mg/kg, PO 3 or 4 mg/kg): 65%

SMILES: CCc1ccc(-c2nn3cccnc3c2C(=O)N[C@H]2N=C(c3ccccc3)c3cccc(F)c3NC2=O)cn1 [Example 55]
- Vd (IV 0.5 mg/kg): 0.47 L/kg
- clearance (IV 0.5 mg/kg): 0.09 L/h/kg
- Cmax: 3.21 µg/mL
- half-life [1]: 5.4 h
- AUC(0-t) (PO 3 or 4 mg/kg): 20.9 µg·h/mL
- half-life [2]: 6.1 h
- C 8 h: 0.72 µg/mL
- F (IV 0.5 mg/kg, PO 3 or 4 mg/kg): 65%
